# Experimental data reported in PubChem BioAssay AID1259407 (Chemical Carcinogenesis Research Information System (CCRIS), 2018).
# Active and inactive are the calls of the source. The rule behind the calls is not given here.
# Tested on: CCRIS mutagenicity, Ames/micronucleus/aberration tests
# Assay: CCRIS mutagenicity studies
# [1] = Test System: AMES SALMONELLA TYPHIMURIUM, Strain/Indicator: TA98, Metabolic Activation: HAMSTER, LIVER, S-9, AROCLOR 1254 (10%), Method: PREINCUBATION
# [2] = Test System: AMES SALMONELLA TYPHIMURIUM, Strain/Indicator: TA98, Metabolic Activation: NONE, Method: PREINCUBATION
# [3] = Test System: AMES SALMONELLA TYPHIMURIUM, Strain/Indicator: TA98, Metabolic Activation: RAT, LIVER, S-9, AROCLOR 1254 (10%), Method: PREINCUBATION
# [4] = Test System: AMES SALMONELLA TYPHIMURIUM, Strain/Indicator: TA100, Metabolic Activation: HAMSTER, LIVER, S-9, AROCLOR 1254 (10%), Method: PREINCUBATION
# [5] = Test System: AMES SALMONELLA TYPHIMURIUM, Strain/Indicator: TA100, Metabolic Activation: NONE, Method: PREINCUBATION
# [6] = Test System: AMES SALMONELLA TYPHIMURIUM, Strain/Indicator: TA100, Metabolic Activation: RAT, LIVER, S-9, AROCLOR 1254 (10%), Method: PREINCUBATION
# [7] = Test System: AMES SALMONELLA TYPHIMURIUM, Strain/Indicator: TA1535, Metabolic Activation: HAMSTER, LIVER, S-9, AROCLOR 1254 (10%), Method: PREINCUBATION
# [8] = Test System: AMES SALMONELLA TYPHIMURIUM, Strain/Indicator: TA1535, Metabolic Activation: NONE, Method: PREINCUBATION
# [9] = Test System: AMES SALMONELLA TYPHIMURIUM, Strain/Indicator: TA1535, Metabolic Activation: RAT, LIVER, S-9, AROCLOR 1254 (10%), Method: PREINCUBATION
# [10] = Test System: AMES SALMONELLA TYPHIMURIUM, Strain/Indicator: TA98, Metabolic Activation: NONE, Method: STANDARD PLATE
# [11] = Test System: AMES SALMONELLA TYPHIMURIUM, Strain/Indicator: TA100, Metabolic Activation: NONE, Method: STANDARD PLATE
compound,measurement,setting,value
OCC(CBr)(CBr)CBr,mutagenic call,[1],inactive; negative
same,mutagenic call,[2],inactive; negative
same,mutagenic call,[3],inactive; negative
same,mutagenic call,[4],inactive; negative
same,mutagenic call,[5],inactive; negative
same,mutagenic call,[6],inactive; negative
same,mutagenic call,[7],active; positive
same,mutagenic call,[8],inactive; negative
same,mutagenic call,[9],inactive; negative
same,mutagenic call,"Test System: AMES SALMONELLA TYPHIMURIUM, Strain/Indicator: TA1537, Metabolic Activation: HAMSTER, LIVER, S-9, AROCLOR 1254 (10%), Method: PREINCUBATION",inactive; negative
same,mutagenic call,"Test System: AMES SALMONELLA TYPHIMURIUM, Strain/Indicator: TA1537, Metabolic Activation: NONE, Method: PREINCUBATION",inactive; negative
same,mutagenic call,"Test System: AMES SALMONELLA TYPHIMURIUM, Strain/Indicator: TA1537, Metabolic Activation: RAT, LIVER, S-9, AROCLOR 1254 (10%), Method: PREINCUBATION",inactive; negative
COc1cccc2c1C(=O)c1c(O)c3c(c(O)c1C2=O)C[C@@](O)(C(C)=O)C[C@@H]3O[C@H]1C[C@H](NCc2ccccc2)[C@H](O)[C@H](C)O1,mutagenic call,"Test System: UDS RAT HEPATOCYTES, Strain/Indicator: THY INCORP, Metabolic Activation: NONE, Method: AUTOMATIC COLONY COUNTER",active; positive
COc1cc(-c2nc(-c3ccccc3)c(-c3ccccc3)[nH]2)ccc1O,mutagenic call,[10],inactive; negative
same,mutagenic call,"Test System: AMES SALMONELLA TYPHIMURIUM, Strain/Indicator: TA98, Metabolic Activation: RAT LIVER S-9, 3-METHYLCHOLANTHRENE, SODIUM PHENOBARBITAL, Method: STANDARD PLATE",inactive; negative
same,mutagenic call,[11],active; positive
CC(=O)OC[C@@]1(O)CC23CC[C@@H]4c5ccoc5C=C[C@@]4(C)[C@@H]2CC[C@@H]1C3,mutagenic call,"Test System: AMES SALMONELLA TYPHIMURIUM, Strain/Indicator: TM677, Metabolic Activation: NONE, Method: PREINCUBATION",inactive; negative
same,mutagenic call,"Test System: AMES SALMONELLA TYPHIMURIUM, Strain/Indicator: TM677, Metabolic Activation: RAT, LIVER, S-9, AROCLOR 1254, Method: PREINCUBATION",inactive; negative
CCCCN(CCCCO)N=O,mutagenic call,[8],inactive; negative
same,mutagenic call,"Test System: AMES SALMONELLA TYPHIMURIUM, Strain/Indicator: TA1535, Metabolic Activation: RAT, LIVER, HEPATOCYTES, Method: PREINCUBATION",inactive; negative
same,mutagenic call,"Test System: AMES SALMONELLA TYPHIMURIUM, Strain/Indicator: TA1535, Metabolic Activation: RAT, LIVER, S-9, AROCLOR, Method: PREINCUBATION",active; positive
same,mutagenic call,"Test System: AMES SALMONELLA TYPHIMURIUM, Strain/Indicator: TA1535, Metabolic Activation: RAT, LIVER, S-9, KC500 OR PHENOBARBITAL, Method: LIQUID SUSPENSION",active; positive
same,mutagenic call,"Test System: AMES SALMONELLA TYPHIMURIUM, Strain/Indicator: TA1535, Metabolic Activation: RAT, LIVER, S-9, SODIUM PHENOBARBITONE, Method: PREINCUBATION",active; positive
same,mutagenic call,"Test System: AMES SALMONELLA TYPHIMURIUM, Strain/Indicator: TA1535, Metabolic Activation: RAT, LIVER, S-9, Method: PREINCUBATION",inactive; negative
CN(C)c1cccc(O)c1,mutagenic call,"Test System: AMES SALMONELLA TYPHIMURIUM, Strain/Indicator: TA97, Metabolic Activation: HAMSTER, LIVER, S-9, AROCLOR 1254 (10%), Method: PREINCUBATION",active; positive
same,mutagenic call,"Test System: AMES SALMONELLA TYPHIMURIUM, Strain/Indicator: TA97, Metabolic Activation: NONE, Method: PREINCUBATION",inactive; negative
same,mutagenic call,"Test System: AMES SALMONELLA TYPHIMURIUM, Strain/Indicator: TA97, Metabolic Activation: RAT, LIVER, S-9, AROCLOR 1254 (10%), Method: PREINCUBATION",active; positive
same,mutagenic call,[1],active; positive
same,mutagenic call,[2],inactive; negative
same,mutagenic call,[3],active; positive
same,mutagenic call,[4],active; positive
same,mutagenic call,[5],inactive; negative
same,mutagenic call,[6],active; positive
same,mutagenic call,[7],inactive; negative
same,mutagenic call,[8],inactive; negative
same,mutagenic call,[9],inactive; negative
Fc1ccc(Br)cc1,mutagenic call,"Test System: Mouse lymphoma, Strain/Indicator: L5178Y (tk+/tk-), Metabolic Activation: None, Method: Suspension/plate",inconclusive
same,mutagenic call,"Test System: Mouse lymphoma, Strain/Indicator: L5178Y (tk+/tk-), Metabolic Activation: Rat, Liver, S-9, Aroclor 1254, Method: Suspension/plate",inconclusive
O=[N+]([O-])c1cc2[nH]c3ccc4ccccc4c3c2c2cc(O)ccc12,mutagenic call,[10],inactive; negative
same,mutagenic call,"Test System: AMES SALMONELLA TYPHIMURIUM, Strain/Indicator: TA98, Metabolic Activation: RAT, LIVER, S-9, 3-METHYLCHOLANTHRENE, Method: STANDARD PLATE",active; positive
same,mutagenic call,[11],active; positive
same,mutagenic call,"Test System: AMES SALMONELLA TYPHIMURIUM, Strain/Indicator: TA100, Metabolic Activation: RAT, LIVER, S-9, 3-METHYLCHOLANTHRENE, Method: STANDARD PLATE",active; positive
O=[N+]([O-])c1ccc2[nH]c3ccc([N+](=O)[O-])cc3c2c1,mutagenic call,"Test System: AMES SALMONELLA TYPHIMURIUM, Strain/Indicator: TA98(NR), Metabolic Activation: NONE, Method: STANDARD PLATE",active; positive
same,mutagenic call,"Test System: AMES SALMONELLA TYPHIMURIUM, Strain/Indicator: TA98(NR), Metabolic Activation: RAT, LIVER, S-9, AROCLOR 1254, Method: STANDARD PLATE",active; positive
same,mutagenic call,[10],active; positive
same,mutagenic call,"Test System: AMES SALMONELLA TYPHIMURIUM, Strain/Indicator: TA98, Metabolic Activation: RAT, LIVER, S-9, AROCLOR 1254, Method: STANDARD PLATE",active; positive
